The test system of assay [1] is TNFα. In words: Bioassay of TNFα production by LPS activated RAW 264.7 macrophages using L929 cell line. The class given is cell-based. The note with it: Mus musculus; L929 + ActD + supernatant from LPS + compound (10 μM) treated RAW 264.7 macrophage; crystal violet; mean ± S.D. of triplicate; read-out: PERCENTAGE CELL SURVIVAL ± S.D. As to the method:
Measurement of TNFα in culture medium or supernatant is performed using immunoassay and bioassay. Bioassay was used for the measurement of bioactive TNFα production in the culture medium.
TNFα secretion into the medium by LPS activated macrophage was assayed using L929 tumorigenic murine cells (ATCC) specifically sensitive to TNFα. L929 cell cytotoxicity assay was performed by a modified method (Sano et al., The Journal of Immunology, 1999, 163: 387-395 The Journal of Immunology, 1999, 163: 387-395) based on that described elsewhere (Flick D A, Gifford G E. J Immunol Methods. 1984 Mar. 30; 68(1-2): 167-175). Briefly, the L929 cells (log phase cells) were seeded into a flat bottom 96 well plates (6×10^4/well) in 100 μl volume of RPMI 1640 containing 2% FCS and incubated overnight at 37° C. in a 5% CO2 incubator. A working dilution of the culture supernatant collected from LPS (200 ng/ml) activated macrophage in a volume of 100 μl per well was first tested to obtain 70-75% cytotoxicity equivalent to […] of recombinant TNFα standard to the TNFα sensitive L929 cell line. After incubation of the L929 cells appropriate fixed dilution of the culture supernatant collected from the compound treated (10 μM) wells, containing the LPS stimulated macrophages in a volume of 100 μl with 2 μg/ml Actinomycin D (Act D) was taken and added to the L929 cells and the cells were incubated at room temperature for 15 min followed by 18 h incubation at 37° C. overnight with 5% CO2. On the next day the medium was removed and the cells were stained with 0.2% (w/v) crystal violet for 10 minutes. The wells were gently rinsed with water, and 33% acetic acid (100 μl/well) was added to extract the retained crystal violet. The absorbance at 570 nm was finally measured.
Tumor necrosis factor-α can cause direct cytotoxicity to the lung fibroblast cell line (L929). Bioassay of TNF α is designated on the basis of this cytotoxicity of TNF α, which can be used for the identification of murine TNF α activity in tissue culture supernatants. Culture supernatant collected from the synthetic molecules treated well containing LPS stimulated macrophage modulated the extent of cytotoxicity to the L929 cells (see Table 1).

The test system of assay [2] is RAW 264.7 cells. The assay is described as follows: Nitrite quantification (Griess) in LPS stimulated macrophages. The class given is cell-based, mouse. The note with it: RAW 264.7 + LPS (200 ng/ml) + 10 μM compound, 24 h; LPS + DMSO control 14.560, basal 0.782. As to the method: NO2^− accumulation was used as an indicator of Nitric Oxide (NO) production in the medium as described previously (Green et al., 1982 Anal Biochem 126, 131-138). […] The isolated supernatants were mixed with an equal volume of Griess reagent (1% sulfanilamide, 0.1% naphthylenediamine dihydrochloride, and 2% phosphoric acid) and incubated at room temperature for 15 min. NaNO2 was used to generate a standard curve, and nitrite production was determined by measuring the optical density at 540 nm.
To estimate the anti-inflammatory effects of all the synthetic molecules listed in this study, we measured the accumulation of nitrite, the stable metabolite of NO, in the culture media using Griess reagent.
To investigate the effect of CAMVE on NO production, we measured the accumulation of nitrite, the stable metabolite of NO, in the culture media using Griess reagent. To investigate the effect of CAMVE on NO production, Raw 264.7 cells, pretreated with indicated concentrations of CAMVE for 1 h were incubated with LPS (250 ng/ml) for 24 h.

Each structure is given as a SMILES string.

`C/C=C/c1cc(OC)c2c(c1)[C@@H](C)[C@H](c1ccc(OC(=O)/C=C/c3ccc(O)c(O)c3)c(OC)c1)O2` (racemic) [compound 5, (±)-2β-[4-O-(3,4,-dihydroxycinnamoyl)-3-methoxyphenyl]-3α-methyl-7-methoxy-5-[(E)-1-propenyl]-2,3 dihydrobenzofuran]: the viability at 10 µM in assay [1] was 67.8 ± 0.866%. Moreover, in assay [2], the “CONCENTRATION OF NITRITE μM ± SD” value was found to be 3.449 ± 0.315 µM.

For `C/C=C/c1cc(OC)c2c(c1)[C@@H](C)[C@H](c1ccc(OC(=O)c3ccc(O)c(OC)c3)c(OC)c1)O2` (racemic) [compound 16, (±)-2β-[4-O-(3-methoxy-4-hydroxybenzoyl)-3-methoxyphenyl]-3α-methyl-7-methoxy-5-[(E)-1-propenyl]-2,3-dihydrobenzofuran], in assay [1], the viability at 10 µM came out at 49 ± 1.99%. Besides, the “CONCENTRATION OF NITRITE μM ± SD” value in assay [2] was found to be 8.449 ± 0.234 µM.

Take `C/C=C/c1cc(OC)c2c(c1)[C@@H](C)[C@H](c1ccc(OC(=O)/C=C/c3ccc(O)c(OC)c3)c(OC)c1)O2` (racemic) [compound 25, (±)-2β-[4-O-(3-methoxy-4-hydroxycinnamoyl)-3-methoxyphenyl]-3α-methyl-7-methoxy-5-[(E)-1-propenyl]-2,3-dihydrobenzofuran]: the viability at 10 µM in assay [1] came to 53.7 ± 2.05%. The “CONCENTRATION OF NITRITE μM ± SD” value in assay [2] is 7.871 ± 0.168 µM.

For `C/C=C/c1cc(OC)c2c(c1)[C@@H](C)[C@H](c1ccc(OC(=O)/C=C/c3ccc(O)cc3)c(OC)c1)O2` (racemic) [compound 29, (±)-2β-[4-O-(4-hydroxycinnamoyl)-3-methoxyphenyl]-3α-methyl-7-methoxy-5-[(E)-1-propenyl]-2,3-dihydrobenzofuran], the viability at 10 µM in assay [1] was 50.6 ± 1.49%. Further, the “CONCENTRATION OF NITRITE μM ± SD” value in assay [2] turned out to be 8.382 ± 0.454 µM.

Consider `COC(=O)/C=C/c1ccc(OC(=O)/C=C/c2ccc(O)c(O)c2)c(OC)c1` [compound 2, 2-methoxy-4-[(1E)-3-methoxy-3-oxoprop-1-en-1-yl]phenyl (2E)-3-(3,4 dihydroxyphenyl)acrylate], for which the viability at 10 µM in assay [1] came out at 68%. Also, the “CONCENTRATION OF NITRITE μM ± SD” value in assay [2] was determined as 2.404 ± 0.168 µM.

Take `COC(=O)c1ccccc1OC(=O)/C=C/c1ccc(O)c(O)c1` [compound 3, Methyl 2-{[(2E)-3-(3,4-dihydroxyphenyl)prop-2-enoyl]oxy}benzoate]: the viability at 10 µM in assay [1] stood at 67 ± 2.3%. In addition, the “CONCENTRATION OF NITRITE μM ± SD” value in assay [2] was 3.022 ± 0.300 µM.

As to `C=CCc1ccc(OC(=O)/C=C/c2ccc(O)c(O)c2)c(OC)c1` [compound 4, 4-allyl-2-methoxyphenyl (2E)-3-(3,4-dihydroxyphenyl)acrylate], in assay [1], the viability at 10 µM was determined as 69.1 ± 1.49%. Further, in assay [2], the “CONCENTRATION OF NITRITE μM ± SD” value amounted to 3.093 ± 0.437 µM.

`COC(=O)/C=C/c1cc(OC)c2c(c1)[C@@H](C(=O)OC)[C@H](c1ccc(OC(=O)/C=C/c3ccc(O)c(O)c3)c(OC)c1)O2` [compound 6, Methyl (E)-3-[2β-{4-O-(3,4-dihydroxycinnamoyl)-3-methoxyphenyl}-7-methoxy-3α-methoxycarbonyl-2,3-dihydro-1-benzofuran-5-yl]prop-2-enoate]: the viability at 10 µM in assay [1] is 66.6 ± 1.49%. Besides, the “CONCENTRATION OF NITRITE μM ± SD” value in assay [2] was 3.204 ± 0.168 µM.

Consider `C/C=C/c1ccc(OC(=O)/C=C/c2ccc(O)c(O)c2)c(OC)c1` [compound 7, 2-methoxy-4-[(1E)-prop-1-en-1-yl]phenyl(2E)-3-(3,4-dihydroxyphenyl)acrylate], for which the viability at 10 µM in assay [1] is 65.3 ± 1.11%. Also, the “CONCENTRATION OF NITRITE μM ± SD” value in assay [2] was 3.760 ± 0.546 µM.

With `COc1cc(C=O)ccc1OC(=O)/C=C/c1ccc(O)c(O)c1` [compound 8, 4-formyl-2-methoxyphenyl (2E)-3-(3,4-dihydroxyphenyl)acrylate], in assay [1], the viability at 10 µM was found to be 67.8 ± 1.25%. The “CONCENTRATION OF NITRITE μM ± SD” value in assay [2] is 3.893 ± 0.133 µM.

Take `COC(=O)c1ccccc1OC(=O)c1ccc(O)c(OC)c1` [compound 9, 2-(Methoxycarbonyl)phenyl 4-hydroxy-3-methoxybenzoate]: the viability at 10 µM in assay [1] worked out at 51.1 ± 2.77%. In addition, in assay [2], the “CONCENTRATION OF NITRITE μM ± SD” value came out at 7.582 ± 0.868 µM.

Regarding `COC(=O)c1ccc(OC(=O)c2ccc(O)c(OC)c2)c(OC)c1` [compound 10, 2-methoxy-4-(methoxycarbonyl)phenyl 4-hydroxy-3-methoxy benzoate], the viability at 10 µM in assay [1] is 51.6 ± 1.4%. Besides, the “CONCENTRATION OF NITRITE μM ± SD” value in assay [2] came to 6.849 ± 0.806 µM.

As for `COC(=O)/C=C/c1ccc(OC(=O)c2ccc(O)c(OC)c2)c(OC)c1` [compound 11, 2-methoxy-4-[(1E)-3-methoxy-3-oxoprop-1-en-1yl]phenyl 4-hydroxy-3-methoxybenzoate], in assay [1], the viability at 10 µM was determined as 52.4 ± 1.51%. Besides, in assay [2], the “CONCENTRATION OF NITRITE μM ± SD” value was 5.604 ± 0.668 µM.

Take `COC(=O)/C=C/c1cc(OC)c2c(c1)[C@@H](C(=O)OC)[C@H](c1ccc(OC(=O)c3ccc(O)c(OC)c3)c(OC)c1)O2` [compound 12, Methyl(E)-3-[2β-{4-O-(3-methoxy-4-hydroxyphenylcarbonyl)-3-methoxyphenyl}-7-methoxy-3α-methoxycarbonyl-2,3-dihydro-1-benzofuran-5-yl]prop-2-enoate]: the viability at 10 µM in assay [1] is 51.3 ± 1.21%. For the same compound, in assay [2], the “CONCENTRATION OF NITRITE μM ± SD” value was 9.582 ± 0.482 µM.

In the case of `C=CCc1ccc(OC(=O)c2ccc(O)c(OC)c2)c(OC)c1` [compound 13, 4-allyl-2-methoxyphenyl 4-hydroxy-3-methoxybenzoate], the viability at 10 µM in assay [1] was 50.6 ± 1.6%. For the same compound, in assay [2], the “CONCENTRATION OF NITRITE μM ± SD” value was 8.004 ± 0.379 µM.

On to `C/C=C/c1ccc(OC(=O)c2ccc(O)c(OC)c2)c(OC)c1` [compound 14, 2-Methoxy-4-[(1E)-prop-1en-1-yl]phenyl4-hydroxy-3-methoxy benzoate], for which, in assay [1], the viability at 10 µM is 51 ± 1.91%. Also, in assay [2], the “CONCENTRATION OF NITRITE μM ± SD” value came out at 8.382 ± 0.278 µM.

With `COc1cc(C(=O)Oc2ccc(C=O)cc2OC)ccc1O` [compound 15, 4-formyl-2-methoxyphenyl 4-hydroxy-3-methoxybenozoate], in assay [1], the viability at 10 µM stood at 50.9 ± 1.84%. For the same compound, the “CONCENTRATION OF NITRITE μM ± SD” value in assay [2] is 8.271 ± 0.342 µM.

Take `COC(=O)c1ccc(OC(=O)/C=C/c2ccc(O)cc2)c(OC)c1` [compound 17, methyl 4-{[(2E)-3-(4-hydroxyphenyl)prop-2-enoyl]oxy}-3-methoxy benzoate]: the viability at 10 µM in assay [1] was 51.9 ± 1.43%. For the same compound, in assay [2], the “CONCENTRATION OF NITRITE μM ± SD” value was found to be 8.404 ± 0.315 µM.

As to `COC(=O)/C=C/c1ccc(OC(=O)/C=C/c2ccc(O)cc2)c(OC)c1` [compound 18, 2-methoxy-4-[(1E)-3-methoxy-3-oxoprop-1-en-1-yl]phenyl (2E)-3-(4-hydroxyphenyl)acrylate], the viability at 10 µM in assay [1] came out at 50.4 ± 1.57%. Besides, in assay [2], the “CONCENTRATION OF NITRITE μM ± SD” value is 7.960 ± 0.437 µM.

In the case of `COc1cc(C=O)ccc1OC(=O)/C=C/c1ccc(O)cc1` [compound 19, 4-formyl-2-methoxyphenyl (2E)-3-(4-hydroxyphenyl)acrylate], the viability at 10 µM in assay [1] stood at 51.6 ± 1.57%. Besides, the “CONCENTRATION OF NITRITE μM ± SD” value in assay [2] came out at 8.227 ± 0.115 µM.

On to `COC(=O)c1ccccc1OC(=O)/C=C/c1ccc(O)cc1` [compound 20, methyl 2-{[(2E)-3-(4-hydroxyphenyl)prop-2-enoyl]oxy}benzoate], for which the viability at 10 µM in assay [1] stood at 51.9%. Further, in assay [2], the “CONCENTRATION OF NITRITE μM ± SD” value came to 8.493 ± 0.267 µM.

For the compound `C=CCc1ccc(OC(=O)/C=C/c2ccc(O)cc2)c(OC)c1` [compound 21, 4-allyl-2-methoxyphenyl (2E)-3-(4-hydroxyophenyl)acrylate], the viability at 10 µM in assay [1] worked out at 52.3 ± 1.25%. For the same compound, the “CONCENTRATION OF NITRITE μM ± SD” value in assay [2] stood at 8.293 ± 0.371 µM.

Turning to `COC(=O)/C=C/c1ccc(OC(=O)/C=C/c2ccc(O)cc2)c(OC(=O)/C=C/c2ccc(O)cc2)c1` [compound 22, methyl [3,4-bis O-(4-hydroxyphenylacryloyl)]phenylacrylate], in assay [1], the viability at 10 µM is 65.6 ± 1.33%. In assay [2], the “CONCENTRATION OF NITRITE μM ± SD” value is 3.982 ± 0.301 µM.

The values above are taken from patent publication US20100168228A1, “NOVEL CHEMOTHERAPEUTIC AGENTS AGAINST INFLAMMATION AND CANCER” (RELIANCE LIFE SCIENCES PVT. LTD., priority 2006, published 2010).
